Assay results published in the RepoRT retention time repository (doi:10.1007/s11306-014-0727-x).
Structures can show the parent of a compound that is named as a salt.

Test: HILIC, Merck SeQuant ZIC-pHILIC, 100 × 2.1 mm, 5 µm, 25 °C; gradient (min/%B) 0/3 1/3 12/30 14.5/90 17/90 18.5/3 24/3
Settings: stereoisomer not certain

| Structure (SMILES) | LC retention time [min] |
| --- | --- |
| COc1ccc2[nH]cc(CC(N)C(=O)O)c2c1 (racemic) [5-Methoxy-DL-tryptophan] | 9.74 |
| NCCC(N)C(=O)O (racemic) [DL-2-4-Diaminobutyric acid dihydrochloride] | 15.9 |
| NC(CCCC(N)C(=O)O)C(=O)O (racemic) [DL-2-6-Diaminopimelic acid] | 14.8 |
| NC(CC(=O)O)C(=O)O (racemic) [DL-Aspartic acid] | 13.6 |
| NC(CCS)C(=O)O (racemic) [DL-Homocysteine] | 11.1 |
| OCC1OC(OC2C(CO)OC(O)C(O)C2O)C(O)C(O)C1O (single isomer, unassigned; peak a) [Lactose Peak A] | 13.5 |
| Nc1ncnc2c1ncn2C1CC(O)C(CO)O1 (centres undefined) [2'-Deoxyadenosine] | 7.15 |
| O=C(O)c1cc(=O)c2cccc(O)c2[nH]1 [4 8-Dihydroxyquinoline-2-carboxylic acid] | 9.54 |
| CN(C)c1ccc(C=CC=O)cc1 [4-(dimethyl amino) cinnamaldehyde] | 1.17 |
| COc1ccc2[nH]cc(CCN)c2c1 [5-methoxytryptamine] | 9.56 |
| CC(C)=CCNc1ncnc2nc[nH]c12 [6-(Y-Y-Dimethylallylamino)purine] | 2.88 |
| c1cnc2[nH]ccc2c1 [7-Azaindole] | 1.74 |
| CC(N)=O [Acetamide] | 2.38 |
| Nc1ncnc2nc[nH]c12 [Adenine] | 8.22 |
| Nc1ncnc2c1ncn2C1OC(CO)C(O)C1O (centres undefined) [Adenosine] | 7.78 |
| CC(N)C(=O)O (centres undefined) [Alanine] | 12.1 |
| CC(N)(CO)CO [Amino-2-methylpropane-1 3-diol 2-] | 12.7 |
| NCc1ccccc1 [Benzylamine] | 10.2 |
| CC(=O)OCC1OC(OC(C)=O)C(OC(C)=O)C(OC(C)=O)C1OC(C)=O (stereo not drawn) [Beta-Penta acetyl glucose] | 1.06 |
| O=C(O)CC1OCC=C2CN3CCC45C6=CC(=O)C(=O)C([N+](=O)[O-])=C6NC4C1C2CC35 (centres undefined) [Cacotheline] | 11.6 |
| Oc1cc(O)c2c(c1)OC(c1ccc(O)c(O)c1)C(O)C2 (centres undefined) [Catechin] | 8.63 |
| COc1cc2c(c(OC)c1OC)-c1ccc(OC)c(=O)cc1C(NC(C)=O)CC2 (centres undefined) [Colchicine] | 1.36 |
| CN1CC(=O)NC1=N [Creatinine] | 9.87 |
| NC(CS)C(=O)O (centres undefined) [Cysteine] | 11.8 |
| Nc1ccn(C2OC(CO)C(O)C2O)c(=O)n1 (centres undefined) [Cytidine] | 10.5 |

| Structure (SMILES) | LC retention time [min] |
| --- | --- |
| Nc1ccnc(=O)[nH]1 [Cytosine] | 10.4 |
| O=C(CO)C(OC1OC(CO)C(O)C(O)C1O)C(O)C(O)CO (stereo not drawn) [D(+)turanose] | 12.6 |
| CC(C)C[C@@H](N)C(=O)O [D-Leucine] | 9.5 |
| N[C@H](Cc1c[nH]c2ccccc12)C(=O)O [D-Tryptophan] | 10.1 |
| Nc1ccccc1C(=O)CC(N)C(=O)O [D-kynurenine] | 9.76 |
| CC(C)[C@@H](N)C(=O)O [D-valine] | 10.5 |
| Nc1ccn(C2CC(O)C(CO)O2)c(=O)n1 (centres undefined) [Deoxycytidine] | 10 |
| Nc1nc2c(ncn2C2CC(O)C(CO)O2)c(=O)[nH]1 (centres undefined) [Deoxyguanosine] | 9.48 |
| COc1cc(-c2ccc(N)c(OC)c2)ccc1N [Dianisidine o-] | 1.46 |
| COc1ccc(Cc2cnc(N)nc2N)cc1OC [Diaveridine] | 8.91 |
| c1ccc(CNCc2ccccc2)cc1 [Dibenzylamine] | 7.37 |
| C(=NC1CCCCC1)=NC1CCCCC1 [Dicyclohexylcarbodiimide-n n'] | 1.09 |
| OCCNCCO [Diethanolamine] | 11.3 |
| NC(Cc1ccc(O)c(O)c1)C(=O)O [Dihydroxyphenyl-analine L-3 4] | 12.7 |
| CN(C)Cc1ccccc1 [Dimethylbenzylamine N N-] | 7.54 |
| NCCO [Ethanolamine] | 12.9 |
| Nc1nc2ncc(CNc3ccc(C(=O)NC(CCC(=O)O)C(=O)O)cc3)nc2c(=O)[nH]1 (centres undefined) [Folic Acid] | 11.4 |
| NCCCC(=O)O [Gamma-amino-n-butyric acid] | 11.6 |
| NC(=O)CCC(N)C(=O)O [Glutamine L-] | 12.9 |
| NC(N)=NCC(=O)O [Glycocyamine] | 12.8 |
| NCC(=O)NCC(=O)O [Glycylglycine] | 14.4 |
| Nc1nc2nc[nH]c2c(=O)[nH]1 [Guanine] | 9.81 |
| Nc1nc2c(ncn2C2OC(CO)C(O)C2O)c(=O)[nH]1 (centres undefined) [Guanosine] | 10.6 |
| O=c1[nH]cnc2nc[nH]c12 [Hypoxanthine] | 7.88 |
| c1c[nH]cn1 [Imidazole] | 10.4 |

| Structure (SMILES) | LC retention time [min] |
| --- | --- |
| O=C(O)CNCC(=O)O [Iminodiacetic acid] | 13.7 |
| NC(=O)Cc1c[nH]c2ccccc12 [Indole-3-acetamide] | 2.48 |
| O=c1[nH]cnc2c1ncn2C1OC(CO)C(O)C1O (centres undefined) [Inosine] | 9.18 |
| O=C(O)C1CCNCC1 [Isonipecotic acid] | 11 |
| N[C@@H](CCCC(=O)O)C(=O)O [L-2-Aminoadipic acid] | 12.4 |
| O=P([O-])([O-])OCC(O)CO [L-Alpha-Glycerophosphate] | 13.5 |
| NC(N)=NCCC[C@H](N)C(=O)O [L-Arginine] | 16 |
| NC(=O)C[C@H](N)C(=O)O [L-Asparagine] | 13.2 |
| N[C@@H](Cc1cnc[nH]1)C(=O)O [L-Histidine monohydrochloride] | 15.7 |
| N[C@@H](CCO)C(=O)O [L-Homoserine] | 12.6 |
| NCCCC[C@H](N)C(=O)O [L-Lysine] | 15.9 |
| CCCC[C@H](N)C(=O)O [L-Norleucine] | 9.62 |
| NCCC[C@H](N)C(=O)O [L-Ornithine] | 15.9 |
| O=C(O)[C@@H]1CCCN1 [L-Proline] | 10.4 |
| CCNC(=O)CC[C@H](N)C(=O)O [L-Theanine] | 10.6 |
| CCC(N)C(=O)O [L-a-Amino-n-butyric acid] | 11.6 |
| Cl.N[C@@H](CS)C(=O)O.O [L-cysteine hydrochloride hydrate] | 11.9 |
| CC(C)(C)[C@H](N)C(=O)O [L-tert-Leucine] | 10 |
| C[C@@H](O)[C@H](N)C(=O)O [L-threonine] | 12.5 |
| N[C@@H](Cc1ccc(O)cc1)C(=O)O [L-tyrosine] | 11.2 |
| CC(O)C(=O)O (centres undefined) [Lactic acid] | 7.45 |
| O=C(O)C(O)C(O)C(OC1OC(CO)C(O)C(O)C1O)C(O)CO (centres undefined) [Lactobionic acid] | 14.3 |
| O=c1c(O)c(-c2ccc(O)cc2O)oc2cc(O)cc(O)c12 [Morin] | 6.55 |
| C1COCCN1 [Morpholine] | 10.4 |
| CC1OC(OC2C(Oc3cc(O)c4c(c3)OC(c3ccc(O)cc3)CC4=O)OC(CO)C(O)C2O)C(O)C(O)C1O (centres undefined) [Naringin CHR] | 7.51 |

| Structure (SMILES) | LC retention time [min] |
| --- | --- |
| NC(=O)c1ccc[n+](C2OC(COP(=O)(O)OP(=O)([O-])OCC3OC(n4cnc5c(N)ncnc54)C(O)C3O)C(O)C2O)c1 (centres undefined) [Nicotinamide adenine dinucleotide] | 14.1 |
| O=C(O)c1cccnc1 [Nicotinic acid] | 2.35 |
| COC(C)C(N)C(=O)O (centres undefined) [O-methyl threonine] | 10.4 |
| C[C@@H](OP(=O)(O)O)[C@H](N)C(=O)O [O-phospho-L-threonine] | 14.5 |
| Nc1ccc(C(=O)O)cc1 [P-Aminobenzoic acid] | 2.26 |
| O=C(CCc1ccc(O)cc1)c1c(O)cc(O)cc1OC1OC(CO)C(O)C(O)C1O (centres undefined) [Phloridzin] | 7.09 |
| Cc1ncc(COP(=O)(O)O)c(C=O)c1O [Pyridoxal-5'-phosphate] | 10.3 |
| Cc1ncc(CO)c(CO)c1O [Pyridoxine] | 9.21 |
| O=C(O)c1ccc2ccccc2n1 [Quinaldic acid] | 1.9 |
| Cc1cc2nc3c(=O)[nH]c(=O)nc-3n(CC(O)C(O)C(O)CO)c2cc1C (centres undefined) [Riboflavin] | 7.85 |
| CC1OC(OCC2OC(Oc3c(-c4ccc(O)c(O)c4)oc4cc(O)cc(O)c4c3=O)C(O)C(O)C2O)C(O)C(O)C1O (centres undefined) [Rutin Trihydrate] | 9.3 |
| NC(CO)C(=O)O [Serine L-] | 13.2 |
| NCCS(=O)(=O)O [Taurine] | 12.6 |
| Cn1c(=O)c2[nH]cnc2n(C)c1=O [Theophylline] | 2.28 |
| Cc1cn(C2CC(O)C(COP(=O)(O)O)O2)c(=O)[nH]c1=O (centres undefined) [Thymidine monophosphate] | 11.9 |
| Cc1cn(C2CC(O)C(CO)O2)c(=O)[nH]c1=O (centres undefined) [Thymidine] | 4.41 |
| Cc1c[nH]c(=O)[nH]c1=O [Thymine] | 3.51 |
| O=C(O)[C@@H]1C[C@@H](O)CN1 [Trans-4-hydroxy-L-proline] | 12.1 |
| NCCc1c[nH]c2ccccc12 [Tryptamine] | 9.86 |
| NCCc1ccc(O)cc1 [Tyramine] | 10.5 |
| NC(N)=O [Urea] | 7.16 |
| O=c1[nH]c(=O)c2[nH]cnc2[nH]1 [Xanthine] | 8.29 |
| O=c1c2ccccc2oc2ccccc12 [Xanthone] | 1.22 |
| Nc1ccc(C(=O)NCC(=O)O)cc1 [p-aminohippuric acid] | 5.67 |
